One assay concerns the target T1, LL-37 (Homo sapiens, UniProt P49913).
T1 sequence (P49913 134-170 limits assumed): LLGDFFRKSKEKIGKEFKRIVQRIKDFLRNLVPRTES
Nature of the assay: Slot-binding assay: iodinated dermatan sulphate (DS36) binding to LL-37 on nitrocellulose, competition. The settings on record: LL-37 0.2-5 μg on nitrocellulose. The method, then: LL-37 (0.2-5 μg) was applied onto nitrocellulose and incubated with iodinated dermatan sulphate (DS36). Different polysaccharides were added for competition of binding. DS36, DS18, DS13 (dermatan sulphate 36, 18, and 13), CS4 and CS6 (chondroitin sulphate 4 and 6), CS-D (chondroitin sulphate D) and CS-E (chondroitin sulphate E).
LL-37 (0.2-5 μg) was applied onto nitrocellulose and incubated with iodinated dermatan sulphate (DS36). Different cationic substances, as indicated on top of the various panels, were added for competition of binding. (a), p-1-lys; poly-L-lysine, p-1-arg; poly-L-arginine, DEAE; DEAE-dextran, PB; polybrene. (b), CH; chitosan, PEI, polyethyleneimine, PM; protamine, PMX; polymyxin B, PMXnp; polymyxin B nonapeptide.
Radioiodination of DS36 was performed according to previous protocols (F Cheng, K. Yoshida, D. Heinegard, L. Å. Fransson, Glycobiology, 2, 553 (1992)). Slot-binding assays were carried out as follows: α-defensin peptide I (Bachem, Switzerland) was blotted onto nitrocellulose membranes (Hybond, Amersham). Membranes were blocked (PBS, pH 7.4, 0.25% Tween 20, 3% bovine serum albumin) for 1 h and incubated with radiolabelled DS (˜20 μl/ml) for 1 h in the same buffer. Unlabelled polysaccharides were added for competition of binding (2 mg/ml). The membranes were washed (3×10 min) (PBS, pH 7.4, 0.25% Tween 20). Bas 2000 radioimaging system (Fuji) was used for visualization of radioactivity.
LL-37 (0.2-5 μg) was applied onto nitrocellulose and incubated with iodinated dermatan sulphate (DS36). Different polysaccharides were added for competition of binding: DS36, DS18, DS13, CS-4, CS-6, CS-D (chondroitin sulphate D) and CS-E (chondroitin sulphate E). […] Radiolabelled DS was, however, displaced by DS-36, DS18, DS13 and CS-E.
The effects of various cationic molecules on the DS-LL-37 interaction were monitored using slot-blot assays as described in Example 2. DS binding to LL-37 was blocked by poly-L-lysine, poly-L-arginine, DEAE-dextran, polybrene, chitosan and polyethyleneimine.

Assay [1] concerns the target T2, E. faecalis gelatinase (Enterococcus faecalis, UniProt Q833V7).
T2 construct: The E. faecalis strain contained gelatinase and supernatants were used directly; made in house; host or cells: Enterococcus faecalis isolate from a chronic venous wound (natural producer); unpurified culture supernatant
It is filed as biochemical. To be noted: 6 mU gelatinase, 1 hour.

The next assay has as its system P. aeruginosa elastase. To be noted: 1 hour; for Inhibition of LL-37 degradation by P. aeruginosa elastase: 12 mU elastase; for Inhibition of LL-37 degradation by P. aeruginosa elastase by sulphated saccharides: 1 μg LL-37, 12 mU elastase, 15 μl 10 mM Tris-buffer.
In another assay the target is T3, α-defensin 1 (Homo sapiens, UniProt P59665).
T3 construct: purchased Bachem, Switzerland
T3 sequence (P59665 65-94 limits assumed): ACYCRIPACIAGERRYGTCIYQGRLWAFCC
Nature of the assay: Slot-binding assay: radioiodinated DS binding to blotted α-defensin 1, competition by unlabelled polysaccharides. To be noted: unlabelled polysaccharide 2 mg/ml, ~100-fold excess.

The test system of another assay is P. aeruginosa. Nature of the assay: Anti-microbial assay (CFU) with α-defensin 1 with or without GAG chains. To be noted: 4 h, 37° C. It is filed as cell-based, Pseudomonas aeruginosa.
In assay [2] the test system is E. faecalis. The description is as above. To be noted: 2 h, 37° C.
Method: FIG. 1A illustrates the killing of bacteria by α-defensin. 2×10^6 CFU/ml of S. pyogenes (□) E. faecalis (●) and P. aeruginosa (◯) were incubated with α-defensin at the indicated peptide concentrations for 2 h (S. pyogenes and E. faecalis) or 4 h (P. aeruginosa) at 37° C., and CFU were determined.
For anti-microbial assays S. pyogenes, E. faecalis and P. aeruginosa were grown to mid-log phase in TH-medium. Bacteria were washed and diluted in 10 mM Tris-HCl, pH 7.5, containing 5 mM glucose. 50 μl bacteria (2×10^6 cfu/ml) were incubated with α-defensin at concentrations ranging from 0-40 μg/ml with or without the addition of various GAG chains at concentrations of 2-400 μg/ml. Incubations were carried out at 37° C. for 2 h (S. pyogenes and E. faecalis) or 4 h (P. aeruginosa). To quantitate the microbicidal activity serial dilutions of the incubation mixture were plated on TH agar, incubated at 37° C. over night and the number of CFU were determined.
In another assay the test system is S. pyogenes. Described as above. To be noted: 2 h, 37° C.
The target in assay [3] is T4, E. faecalis gelatinase (Enterococcus faecalis, UniProt Q833V7).
T4 construct: The E. faecalis strain contained gelatinase and supernatants were used directly; made in house; host or cells: Enterococcus faecalis isolate from a chronic venous wound (natural producer); unpurified culture supernatant
T4 sequence (Q833V7 whole entry, looked up): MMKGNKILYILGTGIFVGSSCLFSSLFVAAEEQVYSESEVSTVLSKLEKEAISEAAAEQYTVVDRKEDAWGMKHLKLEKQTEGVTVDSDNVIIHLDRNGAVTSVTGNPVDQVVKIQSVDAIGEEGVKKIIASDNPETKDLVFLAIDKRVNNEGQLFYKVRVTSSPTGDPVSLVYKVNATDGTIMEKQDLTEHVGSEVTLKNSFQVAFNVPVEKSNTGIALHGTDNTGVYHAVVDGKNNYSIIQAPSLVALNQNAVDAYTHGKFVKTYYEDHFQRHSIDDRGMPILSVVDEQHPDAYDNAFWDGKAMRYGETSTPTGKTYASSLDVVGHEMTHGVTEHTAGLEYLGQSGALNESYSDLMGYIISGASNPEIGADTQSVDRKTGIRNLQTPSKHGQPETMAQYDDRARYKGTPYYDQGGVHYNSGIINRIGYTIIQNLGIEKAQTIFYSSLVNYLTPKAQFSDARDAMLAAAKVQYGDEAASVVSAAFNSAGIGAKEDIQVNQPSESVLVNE
Type of assay: biochemical. The settings on record: 1 μg LL-37, 3 mU, 1 hour and 6 hours.

The test system of assay [4] is E. faecalis. The assay can be described thus: Bactericidal assay of LL-37 after incubation with P. aeruginosa elastase. Type of assay: cell-based, Enterococcus faecalis. To be noted: 0.1 μg LL-37, E. faecalis 2×10^6 cfus/ml, 2 h, 37° C.
Assay [5] concerns the target T5, S. pyogenes cysteine proteinase (Streptococcus pyogenes, UniProt P0C0J0).
In assay [6] the target is T5, S. pyogenes cysteine proteinase. This is another data set of the same source.
Target sequence in this assay (P0C0J0 146-398 limits assumed): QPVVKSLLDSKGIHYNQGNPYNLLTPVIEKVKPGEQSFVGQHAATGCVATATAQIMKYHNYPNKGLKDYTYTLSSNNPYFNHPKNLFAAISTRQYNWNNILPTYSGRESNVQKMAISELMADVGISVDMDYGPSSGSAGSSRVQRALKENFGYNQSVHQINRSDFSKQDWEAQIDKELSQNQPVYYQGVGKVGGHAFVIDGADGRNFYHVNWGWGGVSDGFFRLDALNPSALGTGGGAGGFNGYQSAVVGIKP

Like-named read-outs stand apart in the source and are kept apart here.

For Polymyxin B [reference compound], the “Effect of cationic molecules on DS binding to LL-37” value (“Effect of cationic molecules” for short) on LL-37 is recorded as “did not block the binding”.

Turning to `CNC(=O)[C@H](Cc1c[nH]c2ccccc12)NC(=O)[C@@H](CC(=O)NO)CC(C)C` [GM6001, reference compound], the “Inhibition of LL-37 degradation by E. faecalis gelatinase” value at E. faecalis gelatinase [1] (inhibitor 100 μM) was “Degradation was abolished”. In the assay on P. aeruginosa elastase (inhibitor 100 μM), the “Inhibition of LL-37 degradation by P. aeruginosa elastase” value was “Degradation was abolished”.

As to `CC(=O)NC1C(O)OC(COS(=O)(=O)O)C(OS(=O)(=O)O)C1OC1OC(C(=O)O)=CC(O)C1OS(=O)(=O)O` [ΔUA(2S)-GalNAc(4,6S)], in the assay on P. aeruginosa elastase, the “Inhibition of LL-37 degradation by P. aeruginosa elastase by sulphated saccharides” value was “inhibited the degradation”.

Consider `O=S(=O)(O)OC[C@H]1O[C@@](COS(=O)(=O)O)(O[C@H]2O[C@H](COS(=O)(=O)O)[C@@H](OS(=O)(=O)O)[C@H](OS(=O)(=O)O)[C@H]2OS(=O)(=O)O)[C@@H](OS(=O)(=O)O)[C@@H]1OS(=O)(=O)O` [sucroseoctasulphate], for which the “Inhibition of LL-37 degradation by P. aeruginosa elastase by sulphated saccharides” value in the assay with P. aeruginosa elastase is “inhibited the degradation”.

As to DEAE-dextran, the “Effect of cationic molecules” value on LL-37 is listed as “blocked”.

On to heparin [reference compound], for which the “Competition of radiolabelled DS binding to α-defensin 1 by unlabelled polysaccharide” value (shortened to “Competition of radiolabelled DS binding”) on α-defensin 1 was “displaced the radiolabelled DS”.

In the case of polybrene, the “Effect of cationic molecules” value at LL-37 is reported as “blocked”.

Regarding “α-defensin 1: cationic antimicrobial peptide α-defensin (SEQ ID NO: 2), from Bachem”, the “α-defensin 1 concentration at which bacteria were effectively killed” value in the assay with P. aeruginosa, with E. faecalis [2] and in the assay on S. pyogenes was not below 4 µg/mL in each case.

Take polyethyleneimine: on LL-37, the “Effect of cationic molecules” value is “blocked”.

Regarding chitosan, at LL-37, the “Effect of cationic molecules” value is on record as “blocked”.

Take “polymyxin B nonapeptide [reference compound]”: the “Effect of cationic molecules” value at LL-37 was “did not block the binding”.

For the compound dextran sulfate, the “Competition of radiolabelled DS binding” value at α-defensin 1 is “displaced the radiolabelled DS”.

Regarding poly-L-lysine, the “Effect of cationic molecules” value at LL-37 is “blocked”.

Consider “LL-37: cationic antimicrobial peptide LL-37 (SEQ ID NO: 1)”, for which the “Degradation of LL-37 by E. faecalis gelatinase” value with E. faecalis gelatinase [3] is “degradation of LL-37 by bacterial proteinases”. Also, in the assay on E. faecalis [4], the “Bactericidal activity of LL-37 after incubation with P. aeruginosa elastase” value is recorded as “inactivated”. Also, in assay [5], the “Degradation of LL-37 by S. pyogenes cysteine proteinase” value is “degradation of LL-37 by bacterial proteinases”.

In the case of poly-L-arginine, the “Effect of cationic molecules” value on LL-37 was “blocked”.

Regarding `c1cnc2c(c1)ccc1cccnc12` [1,10-phenantroline, reference compound], on E. faecalis gelatinase [1] (inhibitor 2 mM), the “Inhibition of LL-37 degradation by E. faecalis gelatinase” value is “Degradation was abolished”. The “Inhibition of LL-37 degradation by P. aeruginosa elastase” value with P. aeruginosa elastase (inhibitor 2 mM) is recorded as “Degradation was abolished”.

As for dextran, the “Competition of radiolabelled DS binding” value at α-defensin 1 is “not”.

For the compound protamine [reference compound], the “Effect of cationic molecules” value at LL-37 is on record as “Reduced levels of binding”.

With `CC(C)C[C@H](NC(=O)[C@H]1O[C@@H]1C(=O)O)C(=O)NCCCCN=C(N)N` [E64], in [6], the “Effect on degradation of decorin and high molecular weight proteoglycans by S. pyogenes extracellular products” value is “completely blocked the effect”; the “Effect on degradation of decorin by S. pyogenes cysteine proteinase” value is listed as “abolished degradation”. Further, the “Inhibition of LL-37 degradation by S. pyogenes cysteine proteinase” value in assay [5] is “Degradation was abolished”.

(Values after patent US7335355B2, “Antimicrobial agent” (Hansa Medical AB, priority 2000, dated 2008).)
